Common to all, as to experiment: MIC, broth dilution method in microtitre
(Broth dilution looks for growth in wells or tubes with falling amounts of substance.)

For one assay, the system named is H. influenzae ATCC 49247. It counts as cell-based, Haemophilus influenzae. On the procedure: (§1) Using a standard broth dilution method in microtitre, compounds were tested for antibacterial activity. The compounds in the above examples gave minimum inhibitory concentrations (MICs) less than 1 microgram per millilitre against erythromycin-sensitive and erythromycin-resistant strains of Streptococcus pneumoniae and Streptococcus pyogenes.
(§2) In addiffon, the MIC (μg/mL) of test compounds against various organisms was determined including:
(§3) S. aureus Smith ATCC 13709, S. pneumonlae SP030, S. pyogenes 3565, E. faecalis ATCC 29212, H. influenzae ATCC 49247, M. catarrhalis ATCC 23246.

Assay [1] has as its system M. catarrhalis ATCC 23246. It counts as cell-based, Moraxella catarrhalis. As to the method: as §1, §2, §3
The subject of assay [2] is S. aureus Smith ATCC 13709. The class given is cell-based. To be noted: Staphylococcus aureus, ATCC13709. On the procedure:
as §1, §2, §3

The next assay has as its system S. pneumoniae SP030. It counts as cell-based. To be noted: Streptococcus pneumoniae. On the procedure: as §1, §2, §3
For another assay, the system named is S. pyogenes 3565. The class given is cell-based. To be noted: Streptococcus pyogenes. On the procedure:
as §1, §2, §3

In a further assay the test system is E. faecalis ATCC 29212. The class given is cell-based. To be noted: Enterococcus faecalis, ATCC29212. On the procedure: as §1, §2, §3
The subject of assay [3] is erythromycin-resistant strains of Streptococcus pyogenes. The class given is cell-based. On the procedure:
as §1

In assay [4] the test system is erythromycin-resistant strains of Streptococcus pneumoniae. The class given is cell-based. On the procedure: as §1

Where a name gives a salt, the structure may show the parent alone. Bounds are passed on as bounds.

For “4″-O-3-[2-(3-Carboxy-7-chloro-1-cyclopropyl-4-oxo-1,4-dihydro-quinolin-6-yloxy)-ethoxy]-propylcarbamoyl}-azithromycin (A) and 4″-O-{3-[2-(3-Carboxy-1-cyclopropyl-4-oxo-1,4-dihydro-quinolin-6-yloxy)-ethoxy]-propylcarbamoyl)-azithromycin (B) [Example 1]”, the MIC (against H. influenzae ATCC 49247; in assay [1]) was not above 2 µg/mL each time.
With `CC[C@H]1OC(=O)[C@H](C)[C@@H](O[C@H]2C[C@@](C)(OC)[C@@H](OC(=O)NCCNCCOc3ccc4c(c3)c(=O)c(C(=O)O)cn4CC)[C@H](C)O2)[C@H](C)[C@@H](O[C@@H]2O[C@H](C)CC(N(C)C)[C@H]2O)[C@](C)(OC)C[C@@H](C)C(=O)[C@H](C)[C@@H](O)[C@]1(C)O` (stereo partly drawn) [Example 3, 4″-O-{2-[2-(3-Carboxy-1-ethyl-4-oxo-1,4-dihydro-quinolin-6-yloxy)-ethylamino]-ethylcarbamoyl}-6-O-methyl-erythromycin A monoformate salt], the MIC (in assay [2]; against S. pneumoniae SP030; against S. pyogenes 3565; against E. faecalis ATCC 29212) was not above 1 µg/mL in each case.
In the case of `CC[C@H]1OC(=O)[C@H](C)[C@@H](O[C@H]2C[C@@](C)(OC)[C@@H](OC(=O)NCCCOCCOc3ccc4c(c3)c(=O)c(C(=O)O)cn4C3CC3)[C@H](C)O2)[C@H](C)[C@@H](O[C@@H]2O[C@H](C)C[C@H](N(C)C)[C@H]2O)[C@](C)(O)C[C@@H](C)CN(C)[C@H](C)[C@@H](O)[C@]1(C)O` [Example 2], the MIC is not above 1 µg/mL in assay [2]; not above 1 µg/mL against S. pneumoniae SP030; not above 1 µg/mL against S. pyogenes 3565; not above 1 µg/mL in the assay on E. faecalis ATCC 29212; not above 0.25 µg/mL in assay [3]; not above 0.25 µg/mL in assay [4].
